# Test results published in ChEMBL document CHEMBL1157033, “Developing a complete pharmacology for AMPA receptors: a perspective on subtype-selective ligands” (Bioorg Med Chem, 2010).
# Assays:
# Glutamate receptor 3 [1] = molecular target: T1, Glutamate receptor 3 (Homo sapiens, UniProt P42263); assay: Agonist activity at recombinant GluA3 receptor expressed in Xenopus oocytes; assay type: functional, cell-based, Oocyte
# [2] = Agonist activity at recombinant GluA4 receptor flip isoform expressed in Xenopus oocytes; assay type: functional, cell-based; conditions: Oocyte
# Glutamate receptor 3 [3] = molecular target: T1, Glutamate receptor 3; assay: Agonist activity at recombinant GluA3 receptor flip isoform expressed in Xenopus oocytes; assay type: functional, cell-based, Oocyte
# Glutamate receptor 1 [4] = molecular target: T2, Glutamate receptor 1 (Homo sapiens, UniProt P42261); assay: Agonist activity at recombinant GluA1 receptor expressed in Xenopus oocytes; assay type: functional, cell-based, Oocyte
# T2 sequence (P42261 whole entry, canonical isoform): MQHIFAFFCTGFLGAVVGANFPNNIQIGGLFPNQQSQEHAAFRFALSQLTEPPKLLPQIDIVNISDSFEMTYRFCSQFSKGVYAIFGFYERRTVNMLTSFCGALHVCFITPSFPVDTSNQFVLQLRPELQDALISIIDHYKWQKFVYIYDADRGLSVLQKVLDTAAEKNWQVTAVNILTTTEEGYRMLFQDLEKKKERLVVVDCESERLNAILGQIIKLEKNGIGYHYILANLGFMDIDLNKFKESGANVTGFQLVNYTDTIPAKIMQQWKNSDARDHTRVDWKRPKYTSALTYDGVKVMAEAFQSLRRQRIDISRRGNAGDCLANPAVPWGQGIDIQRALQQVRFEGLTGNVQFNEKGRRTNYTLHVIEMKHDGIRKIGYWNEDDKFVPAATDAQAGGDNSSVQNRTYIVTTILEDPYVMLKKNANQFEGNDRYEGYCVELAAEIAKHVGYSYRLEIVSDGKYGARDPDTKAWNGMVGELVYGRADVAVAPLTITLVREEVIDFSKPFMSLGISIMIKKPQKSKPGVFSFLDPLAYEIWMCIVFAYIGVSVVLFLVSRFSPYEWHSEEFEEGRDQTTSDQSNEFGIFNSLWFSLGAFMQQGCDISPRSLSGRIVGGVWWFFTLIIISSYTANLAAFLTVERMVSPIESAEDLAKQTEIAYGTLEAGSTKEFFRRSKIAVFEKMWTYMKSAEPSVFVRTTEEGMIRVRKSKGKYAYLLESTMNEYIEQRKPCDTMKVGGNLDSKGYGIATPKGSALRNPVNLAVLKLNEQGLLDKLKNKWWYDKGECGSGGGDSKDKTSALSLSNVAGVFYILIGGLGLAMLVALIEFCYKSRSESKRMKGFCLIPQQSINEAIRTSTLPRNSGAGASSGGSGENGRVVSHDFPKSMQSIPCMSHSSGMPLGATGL
# Glutamate receptor 1 [5] = molecular target: T2, Glutamate receptor 1; assay: Agonist activity at recombinant GluA1 receptor flip isoform expressed in Xenopus oocytes; assay type: functional, cell-based, Oocyte
# Glutamate receptor 1 [6] = molecular target: T2, Glutamate receptor 1
# Glutamate receptor 3 [7] = molecular target: T1, Glutamate receptor 3; assay: Agonist activity at recombinant GluA3 receptor flop isoform expressed in Xenopus oocytes; assay type: functional, cell-based, Oocyte
# [8] = Agonist activity at recombinant GluA4 receptor flop isoform expressed in Xenopus oocytes; assay type: functional, cell-based; conditions: Oocyte
# [9] = Antagonist activity at recombinant GluA2A4 receptor flip isoform expressed in Xenopus oocytes; assay type: functional; conditions: Xenopus laevis, Oocyte
# Oocyte [10] = assay: Activity at recombinant GluA2A4 receptor flip isoform expressed in Xenopus oocytes assessed as potentiation of glutamate-induced current at 5 mM relative to control; assay type: cell-based
# Oocyte [11] = assay: Activity at recombinant GluA2A4 receptor flop isoform expressed in Xenopus oocytes assessed as potentiation of glutamate-induced current at 5 mM relative to control; assay type: cell-based
# [12] = molecular target: Glutamate receptor 4 (Rattus norvegicus) (UniProt P19493); assay: Activity at rat recombinant GluA4 receptor flop isoform expressed in HEK293 cells assessed as potentiation of 3000 uM glutamate-induced current at 100 uM relative to control; assay type: cell-based
# Glutamate receptor 4 (Rattus norvegicus), sequence (P19493 whole entry, canonical isoform): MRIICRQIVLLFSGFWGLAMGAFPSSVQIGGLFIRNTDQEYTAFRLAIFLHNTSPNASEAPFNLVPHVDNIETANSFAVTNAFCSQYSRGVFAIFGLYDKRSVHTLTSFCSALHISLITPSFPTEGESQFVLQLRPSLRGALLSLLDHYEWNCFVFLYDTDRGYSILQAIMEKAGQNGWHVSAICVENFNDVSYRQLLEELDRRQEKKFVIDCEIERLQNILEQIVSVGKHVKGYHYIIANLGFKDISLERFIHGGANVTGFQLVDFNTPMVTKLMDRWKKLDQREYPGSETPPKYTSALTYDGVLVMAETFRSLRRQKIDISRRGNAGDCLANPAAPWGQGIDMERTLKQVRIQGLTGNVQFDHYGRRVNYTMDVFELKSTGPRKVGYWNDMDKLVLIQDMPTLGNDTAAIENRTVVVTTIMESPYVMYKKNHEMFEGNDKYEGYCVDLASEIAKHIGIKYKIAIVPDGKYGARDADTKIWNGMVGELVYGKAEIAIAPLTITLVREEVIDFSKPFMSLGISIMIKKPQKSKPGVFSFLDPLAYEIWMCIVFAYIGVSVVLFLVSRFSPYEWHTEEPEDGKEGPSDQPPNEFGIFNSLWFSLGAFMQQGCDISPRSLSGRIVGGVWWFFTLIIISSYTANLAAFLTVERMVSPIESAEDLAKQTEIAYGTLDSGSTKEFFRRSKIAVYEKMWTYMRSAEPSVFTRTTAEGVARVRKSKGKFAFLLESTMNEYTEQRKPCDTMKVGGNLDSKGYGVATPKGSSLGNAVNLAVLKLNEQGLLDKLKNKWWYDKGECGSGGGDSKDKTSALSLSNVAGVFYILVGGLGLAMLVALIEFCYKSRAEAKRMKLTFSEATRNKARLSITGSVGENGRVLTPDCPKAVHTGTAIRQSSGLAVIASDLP
# [13] = molecular target: T3, Glutamate receptor AMPA 2/4 (Rattus norvegicus) (UniProt P19491+P19493); assay: Activity at rat recombinant GluA2A4 receptor flop isoform expressed in HEK293 cells assessed as potentiation of 3000 uM glutamate-induced current at 100 uM relative to control; assay type: cell-based
# [14] = molecular target: T4, Glutamate receptor AMPA 1/2 (Rattus norvegicus) (UniProt P19491+P19490); assay: Activity at rat recombinant GluA1A2 receptor flop isoform expressed in HEK293 cells assessed as potentiation of 3000 uM glutamate-induced current at 100 uM relative to control; assay type: cell-based
# [15] = molecular target: T5, Glutamate receptor ionotropic, AMPA 2/3 (Rattus norvegicus) (UniProt P19491+P19492); assay: Activity at rat recombinant GluA2A3 receptor flop isoform expressed in HEK293 cells assessed as potentiation of 3000 uM glutamate-induced current at 100 uM relative to control; assay type: cell-based
# [16] = molecular target: T6, Glutamate receptor AMPA 2/3 (Homo sapiens) (UniProt P42263+P42262); assay: Activity at recombinant GluA2A3 receptor flop isoform expressed in Xenopus oocytes assessed as potentiation of 10 uM AMPA-induced current at 100 uM relative to control; assay type: cell-based; conditions: Oocyte
# [17] = molecular target: Glutamate receptor 1 (Rattus norvegicus) (UniProt P19490); assay: Activity at rat recombinant GluA1 receptor flip isoform expressed in HEK293 cells assessed as potentiation of 3000 uM glutamate-induced current at 100 uM relative to control; assay type: cell-based
# Glutamate receptor 1 (Rattus norvegicus), sequence (P19490 whole entry, canonical isoform): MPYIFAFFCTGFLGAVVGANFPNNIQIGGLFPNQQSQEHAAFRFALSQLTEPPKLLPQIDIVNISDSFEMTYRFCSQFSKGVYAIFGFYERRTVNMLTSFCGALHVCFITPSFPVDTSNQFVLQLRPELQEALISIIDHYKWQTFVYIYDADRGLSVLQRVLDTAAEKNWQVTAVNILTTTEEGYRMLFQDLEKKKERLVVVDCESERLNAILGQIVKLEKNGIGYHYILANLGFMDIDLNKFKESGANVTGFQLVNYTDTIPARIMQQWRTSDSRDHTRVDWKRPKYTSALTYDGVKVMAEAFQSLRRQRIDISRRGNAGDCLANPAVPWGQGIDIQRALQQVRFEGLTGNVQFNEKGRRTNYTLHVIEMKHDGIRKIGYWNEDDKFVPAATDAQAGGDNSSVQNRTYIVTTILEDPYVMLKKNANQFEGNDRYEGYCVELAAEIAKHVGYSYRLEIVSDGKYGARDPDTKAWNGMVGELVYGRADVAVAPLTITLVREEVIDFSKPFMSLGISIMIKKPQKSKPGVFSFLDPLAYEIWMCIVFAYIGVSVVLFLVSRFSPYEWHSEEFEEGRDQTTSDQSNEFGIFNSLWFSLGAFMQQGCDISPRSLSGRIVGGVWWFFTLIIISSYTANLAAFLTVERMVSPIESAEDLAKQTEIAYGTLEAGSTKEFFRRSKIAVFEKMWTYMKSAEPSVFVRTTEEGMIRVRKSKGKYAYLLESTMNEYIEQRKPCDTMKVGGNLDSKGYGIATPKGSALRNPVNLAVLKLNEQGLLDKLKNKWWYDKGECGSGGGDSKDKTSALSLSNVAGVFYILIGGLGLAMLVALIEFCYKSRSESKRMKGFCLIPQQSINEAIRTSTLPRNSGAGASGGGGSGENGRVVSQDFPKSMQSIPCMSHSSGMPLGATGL
# [18] = molecular target: T3, Glutamate receptor AMPA 2/4 (Rattus norvegicus); assay: Activity at rat recombinant GluA2A4 receptor flip isoform expressed in HEK293 cells assessed as potentiation of 3000 uM glutamate-induced current at 100 uM relative to control; assay type: cell-based
# [19] = molecular target: T5, Glutamate receptor ionotropic, AMPA 2/3 (Rattus norvegicus); assay: Activity at rat recombinant GluA2A3 receptor flip isoform expressed in HEK293 cells assessed as potentiation of 3000 uM glutamate-induced current at 100 uM relative to control; assay type: cell-based
# [20] = molecular target: T7, Glutamate receptor AMPA 1/2 (Homo sapiens) (UniProt P42262+P42261); assay: Activity at recombinant GluA1 receptor flop/GluA2 receptor flip isoform expressed in Xenopus oocytes assessed as potentiation of 10 uM AMPA-induced current at 100 uM relative to control; assay type: cell-based; conditions: Oocyte
# [21] = molecular target: T7, Glutamate receptor AMPA 1/2 (Homo sapiens); assay: Activity at recombinant GluA1 receptor flip/GluA2 receptor flop isoform expressed in Xenopus oocytes assessed as potentiation of 10 uM AMPA-induced current at 100 uM relative to control; assay type: cell-based; conditions: Oocyte
# Glutamate receptor 3 [22] = molecular target: T1, Glutamate receptor 3; assay: Activity at recombinant GluA3 receptor flop isoform expressed in Xenopus oocytes assessed as potentiation of 10 uM AMPA-induced current at 100 uM relative to control; assay type: cell-based; conditions: Oocyte
# [23] = molecular target: Glutamate receptor 3 (Rattus norvegicus) (UniProt P19492); assay: Activity at rat recombinant GluA3 receptor flop isoform expressed in HEK293 cells assessed as potentiation of 3000 uM glutamate-induced current at 100 uM relative to control; assay type: cell-based
# Glutamate receptor 3 (Rattus norvegicus), sequence (P19492 whole entry, canonical isoform): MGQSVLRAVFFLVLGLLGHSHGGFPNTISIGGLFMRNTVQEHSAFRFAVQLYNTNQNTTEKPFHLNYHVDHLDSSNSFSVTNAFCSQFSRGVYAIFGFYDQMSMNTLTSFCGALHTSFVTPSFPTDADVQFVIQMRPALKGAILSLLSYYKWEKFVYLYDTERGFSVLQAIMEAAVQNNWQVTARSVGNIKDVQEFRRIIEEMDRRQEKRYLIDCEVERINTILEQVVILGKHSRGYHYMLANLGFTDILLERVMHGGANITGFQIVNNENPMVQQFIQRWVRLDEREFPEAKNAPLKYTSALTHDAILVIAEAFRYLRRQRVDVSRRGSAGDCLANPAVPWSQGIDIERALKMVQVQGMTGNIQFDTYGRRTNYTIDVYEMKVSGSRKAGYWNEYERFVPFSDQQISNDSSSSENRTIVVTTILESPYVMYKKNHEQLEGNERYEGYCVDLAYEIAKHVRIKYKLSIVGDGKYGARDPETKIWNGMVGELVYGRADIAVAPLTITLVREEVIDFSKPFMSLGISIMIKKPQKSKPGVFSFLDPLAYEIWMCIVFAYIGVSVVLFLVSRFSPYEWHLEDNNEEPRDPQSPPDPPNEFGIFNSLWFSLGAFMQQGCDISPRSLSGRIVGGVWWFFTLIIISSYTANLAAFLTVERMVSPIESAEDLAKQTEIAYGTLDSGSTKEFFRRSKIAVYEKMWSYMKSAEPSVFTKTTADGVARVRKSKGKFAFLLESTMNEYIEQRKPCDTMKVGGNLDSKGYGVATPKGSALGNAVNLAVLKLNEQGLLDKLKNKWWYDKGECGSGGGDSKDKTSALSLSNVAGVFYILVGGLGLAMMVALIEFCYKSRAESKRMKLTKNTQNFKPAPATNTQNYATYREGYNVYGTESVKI
# [24] = molecular target: Glutamate receptor 4 (Rattus norvegicus) (UniProt P19493); assay: Activity at rat recombinant GluA4 receptor flip isoform expressed in HEK293 cells assessed as potentiation of 3000 uM glutamate-induced current at 100 uM relative to control; assay type: cell-based
# [25] = molecular target: T6, Glutamate receptor AMPA 2/3 (Homo sapiens); assay: Activity at recombinant GluA2 receptor flop/GluA3 receptor flip isoform expressed in Xenopus oocytes assessed as potentiation of 10 uM AMPA-induced current at 100 uM relative to control; assay type: cell-based; conditions: Oocyte
# [26] = molecular target: T6, Glutamate receptor AMPA 2/3 (Homo sapiens); assay: Activity at recombinant GluA2 receptor flip/GluA3 receptor flop isoform expressed in Xenopus oocytes assessed as potentiation of 10 uM AMPA-induced current at 100 uM relative to control; assay type: cell-based; conditions: Oocyte
# [27] = molecular target: Glutamate receptor 3 (Rattus norvegicus) (UniProt P19492); assay: Activity at rat recombinant GluA3 receptor flip isoform expressed in HEK293 cells assessed as potentiation of 3000 uM glutamate-induced current at 100 uM relative to control; assay type: cell-based
# Glutamate receptor 3 [28] = molecular target: T1, Glutamate receptor 3; assay: Activity at recombinant GluA3 receptor flip isoform expressed in Xenopus oocytes assessed as potentiation of 10 uM AMPA-induced current at 100 uM relative to control; assay type: cell-based; conditions: Oocyte
# Glutamate receptor 1 [29] = molecular target: T2, Glutamate receptor 1; assay: Activity at recombinant GluA1 receptor flip isoform expressed in Xenopus oocytes assessed as potentiation of 10 uM AMPA-induced current at 100 uM relative to control; assay type: cell-based; conditions: Oocyte
# [30] = molecular target: T7, Glutamate receptor AMPA 1/2 (Homo sapiens); assay: Activity at recombinant GluA1A2 receptor flop isoform expressed in Xenopus oocytes assessed as potentiation of 10 uM AMPA-induced current at 100 uM relative to control; assay type: cell-based; conditions: Oocyte
# Glutamate receptor 1 [31] = molecular target: T2, Glutamate receptor 1; assay: Activity at recombinant GluA1 receptor flop isoform expressed in Xenopus oocytes assessed as potentiation of 10 uM AMPA-induced current at 100 uM relative to control; assay type: cell-based; conditions: Oocyte
# [32] = molecular target: Glutamate receptor 1 (Rattus norvegicus) (UniProt P19490); assay: Activity at rat recombinant GluA1 receptor flop isoform expressed in HEK293 cells assessed as potentiation of 3000 uM glutamate-induced current at 100 uM relative to control; assay type: cell-based
# [33] = molecular target: T4, Glutamate receptor AMPA 1/2 (Rattus norvegicus); assay: Activity at rat recombinant GluA1A2 receptor flip isoform expressed in HEK293 cells assessed as potentiation of 3000 uM glutamate-induced current at 100 uM relative to control; assay type: cell-based
# Glutamate receptor 3 [34] = molecular target: T8, Glutamate receptor 3 (Rattus norvegicus, UniProt P19492); assay: Agonist activity at rat recombinant GluA3 receptor expressed in Xenopus oocytes; assay type: functional, cell-based, Oocyte
# T8 sequence (P19492 whole entry, canonical isoform): as above
# Glutamate receptor 1 [35] = molecular target: T9, Glutamate receptor 1 (Rattus norvegicus, UniProt P19490); assay: Agonist activity at rat recombinant GluA1 receptor flop isoform expressed in Xenopus oocytes; assay type: functional, cell-based, Oocyte
# T9 sequence (P19490 whole entry, canonical isoform): as the sequence (P19490 whole entry, canonical isoform) above
# Glutamate receptor 3 [36] = molecular target: T8, Glutamate receptor 3; assay: Agonist activity at rat recombinant GluA3 receptor flop isoform expressed in Xenopus oocytes; assay type: functional, cell-based, Oocyte
# Glutamate receptor 1 [37] = molecular target: T9, Glutamate receptor 1; assay: Agonist activity at rat recombinant GluA1 receptor expressed in Xenopus oocytes; assay type: functional, cell-based, Oocyte
# T1 sequence (P42263 whole entry, canonical isoform): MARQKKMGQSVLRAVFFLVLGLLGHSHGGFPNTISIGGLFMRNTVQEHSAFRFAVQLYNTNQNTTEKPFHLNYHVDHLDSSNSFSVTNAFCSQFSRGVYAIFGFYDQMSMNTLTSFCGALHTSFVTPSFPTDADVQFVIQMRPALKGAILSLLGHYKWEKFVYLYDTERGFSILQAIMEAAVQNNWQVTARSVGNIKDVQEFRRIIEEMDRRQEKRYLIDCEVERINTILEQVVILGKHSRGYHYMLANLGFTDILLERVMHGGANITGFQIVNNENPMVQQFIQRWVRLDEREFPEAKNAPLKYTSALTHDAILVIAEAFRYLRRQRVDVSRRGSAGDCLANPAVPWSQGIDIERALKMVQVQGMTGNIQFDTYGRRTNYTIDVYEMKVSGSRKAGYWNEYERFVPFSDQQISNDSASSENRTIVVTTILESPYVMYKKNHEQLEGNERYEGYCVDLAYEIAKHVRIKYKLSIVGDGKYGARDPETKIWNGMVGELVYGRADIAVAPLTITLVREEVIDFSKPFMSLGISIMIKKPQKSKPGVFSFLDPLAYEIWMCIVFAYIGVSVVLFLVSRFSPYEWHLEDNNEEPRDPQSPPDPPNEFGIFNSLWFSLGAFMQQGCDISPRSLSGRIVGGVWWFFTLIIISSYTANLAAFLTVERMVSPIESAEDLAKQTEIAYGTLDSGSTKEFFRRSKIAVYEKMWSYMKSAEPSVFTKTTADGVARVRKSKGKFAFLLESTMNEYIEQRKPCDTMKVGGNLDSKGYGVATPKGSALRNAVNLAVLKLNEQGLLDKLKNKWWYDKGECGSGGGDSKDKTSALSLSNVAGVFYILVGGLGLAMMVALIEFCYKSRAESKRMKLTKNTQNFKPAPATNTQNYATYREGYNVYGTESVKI
compound,measurement,setting,value
N[C@@H](Cn1cc(F)c(=O)[nH]c1=O)C(=O)O,EC50,Glutamate receptor 3 [1],20900 nM
same,EC50,[2],11900 nM
same,EC50,Glutamate receptor 3 [3],20900 nM
same,EC50,Glutamate receptor 1 [4],380 nM
same,EC50,Glutamate receptor 1 [5],382 nM
Cc1onc(C(=O)O)c1C[C@H](N)C(=O)O,EC50,Glutamate receptor 1 [6],270 nM
same,EC50,Glutamate receptor 3 [7],1600 nM
same,EC50,[8],1700 nM
N#Cc1cc2c(cc1[N+](=O)[O-])=NC(=O)C(=O)N=2,Kb,[9],501 nM
COc1ccc(C(=O)N2CCCC2=O)cc1,fold change (FC),Oocyte [10],7.5
same,fold change (FC),Oocyte [11],77
NC(=O)COc1c(F)cc(SCCNS(=O)(=O)c2ccccc2)cc1F,fold change (FC),[12],75
same,fold change (FC),[13],74
same,fold change (FC),[14],124
same,fold change (FC),[15],138
same,fold change (FC),[16],21.1
same,fold change (FC),[17],1.9
same,fold change (FC),[18],10
same,fold change (FC),[19],28
same,fold change (FC),[20],9.49
same,fold change (FC),[21],20.1
same,fold change (FC),Glutamate receptor 3 [22],11.1
same,fold change (FC),[23],11.1
same,fold change (FC),[24],11
same,fold change (FC),[25],4.78
same,fold change (FC),[26],8.85
same,fold change (FC),[27],2.51
same,fold change (FC),Glutamate receptor 3 [28],2.51
same,fold change (FC),Glutamate receptor 1 [29],1.9
same,fold change (FC),[30],7.44
same,fold change (FC),Glutamate receptor 1 [31],2.9
same,fold change (FC),[32],2.9
same,fold change (FC),[33],20
NC(Cc1ccc(=O)[nH][n+]1[O-])C(=O)O (racemic),EC50,Glutamate receptor 3 [1],41600 nM
same,EC50,Glutamate receptor 3 [3],41600 nM
same,EC50,Glutamate receptor 1 [4],260 nM
same,EC50,Glutamate receptor 1 [5],258 nM
Cc1onc(C(=O)O)c1CC(N)C(=O)O (racemic),EC50,Glutamate receptor 3 [34],100 nM
same,EC50,Glutamate receptor 1 [35],1100 nM
same,EC50,Glutamate receptor 3 [36],100 nM
same,EC50,Glutamate receptor 1 [37],1100 nM
